From the supplement of paper PMC10307832

Legend:
Experiment in all cases: relative viability (nuclei count vs DMSO), 5 days (fraction); higher = more cells survive
[1] = compound: COC1=C(C=C(C=C1)C2=CC3=NC=CN3C(=N2)NC4=C(C=CC=N4)C(=O)N)OC [BAY61-3606] + COc1cccc2cc(-c3nc([C@H]4CC[C@H](C(=O)O)CC4)n4ncnc(N)c34)[nH]c12 [OSI-027] (partner 0.5 µM)
Outline: (§1)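 Relative viability was taken as the ratio of nuclei in treated wells to nuclei in vehicle wells. Lung cancer cell lines in 1536-well plates received compounds by pin tool one day after seeding, either one drug alone or a fixed anchor-drug dose plus five library-drug doses (not always all listed) in √10 steps. Nuclei were counted on 4× images after 5 days of treatment, and values are medians of duplicate plates.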

[2] = compound: COC1=C(C=C(C=C1)C2=CC3=NC=CN3C(=N2)NC4=C(C=CC=N4)C(=O)N)OC [BAY61-3606] + O=C(CCCCCCC(=O)Nc1ccccc1)NO [Vorinostat] (partner 1 µM)
Outline: as §1

[3] = compound: COc1cccc2c1C(=O)c1c(O)c3c(c(O)c1C2=O)C[C@@](O)(C(=O)CO)C[C@@H]3O[C@H]1C[C@H](N)[C@H](O)[C@H](C)O1 [Doxorubicin] + CC1(C)CCC(c2ccc(Cl)cc2)=C(CN2CCN(c3ccc(C(=O)NS(=O)(=O)c4ccc(N[C@H](CCN5CCOCC5)CSc5ccccc5)c(S(=O)(=O)C(F)(F)F)c4)cc3)CC2)C1 [Navitoclax] (partner 0.5 µM)
Outline: as §1

[4] = compound: COc1cccc2c1C(=O)c1c(O)c3c(c(O)c1C2=O)C[C@@](O)(C(=O)CO)C[C@@H]3O[C@H]1C[C@H](N)[C@H](O)[C@H](C)O1 [Doxorubicin] + C[C@]1(O)C[C@@H](c2nc(-c3ccc4ccc(-c5ccccc5)nc4c3)c3c(N)nccn32)C1 [Linsitinib] (partner 1 µM)
Outline: as §1

| Cell Line | relative viability ([1]; first compound 0.02 µM) | relative viability ([1]; first compound 0.06325 µM) | relative viability ([1]; first compound 0.6325 µM) | relative viability ([1]; first compound 2 µM) | relative viability ([2]; first compound 0.02 µM) | relative viability ([2]; first compound 0.06325 µM) | relative viability ([2]; first compound 0.2 µM) | relative viability ([2]; first compound 0.6325 µM) | relative viability ([2]; first compound 2 µM) | relative viability ([3]; first compound 0.003162 µM) | relative viability ([3]; first compound 0.01 µM) | relative viability ([3]; first compound 0.03162 µM) | relative viability ([3]; first compound 0.1 µM) | relative viability ([4]; first compound 0.003162 µM) | relative viability ([4]; first compound 0.01 µM) | relative viability ([4]; first compound 0.03162 µM) | relative viability ([4]; first compound 0.1 µM) | relative viability ([1]; first compound 0.2 µM) | relative viability ([3]; first compound 0.001 µM) | relative viability ([4]; first compound 0.001 µM) |
| --- | --- | --- | --- | --- | --- | --- | --- | --- | --- | --- | --- | --- | --- | --- | --- | --- | --- | --- | --- | --- |
| NCI-H1793 | 0.259 | 0.276 | 0.255 | 0.235 | 0.842 | 0.83 | 0.684 | 1.04 | 0.989 | 0.448 | 0.393 | 0.478 | 0.547 | 0.813 | 0.848 | 0.579 | 0.911 |  |  |  |
| NCI-H1915 | 0.623 | 0.632 | 0.662 | 0.443 | 0.515 | 0.528 | 0.478 | 0.511 | 0.483 | 0.813 | 0.788 | 0.784 | 0.829 | 1.03 | 1.08 | 1.05 | 1.1 | 0.571 | 0.778 | 1.14 |
| NCI-H1944 | 0.403 | 0.377 | 0.373 | 0.352 | 0.65 | 0.538 | 0.515 | 0.559 | 0.487 | 1.13 | 1.03 | 0.977 | 1.19 | 1.23 | 1.34 | 1.16 | 1.3 | 0.363 | 1.05 | 1.17 |
| NCI-H1975 | 0.797 | 0.756 | 0.635 | 0.333 | 0.849 | 0.734 | 0.712 | 0.722 | 0.585 | 1.22 | 1.06 | 0.791 | 0.569 | 1.02 | 0.845 | 0.572 | 0.464 | 0.692 | 1.2 | 1.09 |
| NCI-H1993 | 0.586 | 0.583 | 0.564 | 0.587 | 1.06 | 0.718 | 0.756 | 0.0488 | 0.67 | 0.876 | 0.884 | 1.01 | 0.889 | 0.751 | 0.741 | 0.659 | 0.733 | 0.505 | 0.947 | 0.711 |
| NCI-H2009 | 0.754 | 0.686 | 0.597 | 0.348 | 0.703 | 0.833 | 0.714 | 0.734 | 0.697 | 1.15 | 1.17 | 0.962 | 0.604 | 1.15 | 1.28 | 0.953 | 0.639 | 0.681 | 1.21 | 1.16 |
| NCI-H2023 | 0.471 | 0.359 | 0.402 | 0.19 | 0.856 | 0.671 | 0.638 | 0.82 | 0.468 | 1.05 | 0.886 | 0.482 | 0.16 | 0.62 | 0.549 | 0.279 | 0.102 | 0.37 | 0.956 | 0.642 |
